Measured values: PubChem BioAssay AID1963426 (Molecular Pharmacology Branch, DTP, NCI, 2024)

Test system: 186277-243-T-J2-PDC complex spheroid growth, % test/control
Experiment: Anticancer human tumor 186277-243-T-J2-PDC patient-derived colon adenocarcinoma cell line growth inhibition [Asc]
Details: for IC50: curve of first compound; for viability, T/C: stronger effect = lower value
How it was run: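 Tumor cells were grown as multicellular spheroids with stromal HUVEC and mesenchymal stem cells and treated singly or in combination. Concentrations fell in half-log steps from the clinical Cmax, or from 10 microM where none was known.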

[1] = second compound 0.01 µM, first compound 0.00316 µM
[2] = second compound 0.01 µM, first compound 0.01 µM
[3] = second compound 0.01 µM, first compound 0.0316 µM
[4] = second compound 0.01 µM, first compound 0.1 µM
[5] = second compound 0.01 µM, first compound 0.316 µM
[6] = second compound 0.01 µM, first compound 1 µM
[7] = second compound 0.0316 µM, first compound 0.00316 µM
[8] = second compound 0.0316 µM, first compound 0.01 µM
[9] = second compound 0.0316 µM, first compound 0.0316 µM
[10] = second compound 0.0316 µM, first compound 0.1 µM
[11] = second compound 0.0316 µM, first compound 0.316 µM
[12] = second compound 0.0316 µM, first compound 1 µM
[13] = second compound 0.1 µM, first compound 0.00316 µM
[14] = second compound 0.1 µM, first compound 0.01 µM
[15] = second compound 0.1 µM, first compound 0.0316 µM
[16] = second compound 0.1 µM, first compound 0.1 µM
[17] = second compound 0.1 µM, first compound 0.316 µM
[18] = second compound 0.1 µM, first compound 1 µM
[19] = second compound 0.316 µM, first compound 0.00316 µM
[20] = second compound 0.316 µM, first compound 0.01 µM
[21] = second compound 0.316 µM, first compound 0.0316 µM
[22] = second compound 0.316 µM, first compound 0.1 µM
[23] = second compound 0.316 µM, first compound 0.316 µM
[24] = second compound 0.316 µM, first compound 1 µM
[25] = second compound 1 µM, first compound 0.00316 µM
[26] = second compound 1 µM, first compound 0.01 µM
[27] = second compound 1 µM, first compound 0.0316 µM
[28] = second compound 1 µM, first compound 0.1 µM
[29] = second compound 1 µM, first compound 0.316 µM
[30] = second compound 1 µM, first compound 1 µM
[31] = second compound 0.01 µM, first compound 0.000316 µM
[32] = second compound 0.01 µM, first compound 0.001 µM
[33] = second compound 0.0316 µM, first compound 0.000316 µM
[34] = second compound 0.0316 µM, first compound 0.001 µM
[35] = second compound 0.1 µM, first compound 0.000316 µM
[36] = second compound 0.1 µM, first compound 0.001 µM
[37] = second compound 0.316 µM, first compound 0.000316 µM
[38] = second compound 0.316 µM, first compound 0.001 µM
[39] = second compound 1 µM, first compound 0.000316 µM
[40] = second compound 1 µM, first compound 0.001 µM
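Also: spheroids exposed to agents for 7 days.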
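For viability, T/C in this document: 100% = DMSO vehicle control wells.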

CCN1CCN(Cc2ccc(Nc3ncc(F)c(-c4cc(F)c5nc(C)n(C(C)C)c5c4)n3)nc2)CC1 + CNC(C)C(=O)NC1CN(S(=O)(=O)c2cccc(S(=O)(=O)N3CCC4CCC(C(=O)NC(c5ccccc5)c5ccccc5)N4C(=O)C(NC(=O)C(C)NC)C3)c2)CCC2CCC(C(=O)NC(c3ccccc3)c3ccccc3)N2C1=O
IC50 (second compound 0.01 µM): > 1000 nM
IC50 (second compound 0.0316 µM): > 1000 nM
IC50 (second compound 0.1 µM): > 1000 nM
IC50 (second compound 0.316 µM): > 1000 nM
IC50 (second compound 1 µM): > 1000 nM
viability, T/C [1]: 85.5%
viability, T/C [2]: 110%
viability, T/C [3]: 109%
viability, T/C [4]: 129%
viability, T/C [5]: 123%
viability, T/C [6]: 114%
viability, T/C [7]: 111%
viability, T/C [8]: 90.2%
viability, T/C [9]: 114%
viability, T/C [10]: 114%
viability, T/C [11]: 143%
viability, T/C [12]: 120%
viability, T/C [13]: 112%
viability, T/C [14]: 120%
viability, T/C [15]: 118%
viability, T/C [16]: 132%
viability, T/C [17]: 143%
viability, T/C [18]: 107%
viability, T/C [19]: 107%
viability, T/C [20]: 108%
viability, T/C [21]: 126%
viability, T/C [22]: 131%
viability, T/C [23]: 134%
viability, T/C [24]: 110%
viability, T/C [25]: 120%
viability, T/C [26]: 113%
viability, T/C [27]: 118%
viability, T/C [28]: 138%
viability, T/C [29]: 148%
viability, T/C [30]: 120%

Cn1ncnc1[C@H]1c2n[nH]c(=O)c3cc(F)cc(c23)N[C@@H]1c1ccc(F)cc1 + CNC(C)C(=O)NC1CN(S(=O)(=O)c2cccc(S(=O)(=O)N3CCC4CCC(C(=O)NC(c5ccccc5)c5ccccc5)N4C(=O)C(NC(=O)C(C)NC)C3)c2)CCC2CCC(C(=O)NC(c3ccccc3)c3ccccc3)N2C1=O
IC50 (second compound 0.01 µM): > 100 nM
IC50 (second compound 0.0316 µM): > 100 nM
IC50 (second compound 0.1 µM): > 100 nM
IC50 (second compound 0.316 µM): > 100 nM
IC50 (second compound 1 µM): > 100 nM
viability, T/C [31]: 100%
viability, T/C [32]: 97.5%
viability, T/C [1]: 106%
viability, T/C [2]: 119%
viability, T/C [3]: 144%
viability, T/C [4]: 144%
viability, T/C [33]: 108%
viability, T/C [34]: 103%
viability, T/C [7]: 129%
viability, T/C [8]: 124%
viability, T/C [9]: 133%
viability, T/C [10]: 155%
viability, T/C [35]: 121%
viability, T/C [36]: 115%
viability, T/C [13]: 124%
viability, T/C [14]: 127%
viability, T/C [15]: 146%
viability, T/C [16]: 155%
viability, T/C [37]: 101%
viability, T/C [38]: 101%
viability, T/C [19]: 108%
viability, T/C [20]: 128%
viability, T/C [21]: 147%
viability, T/C [22]: 159%
viability, T/C [39]: 91.3%
viability, T/C [40]: 115%
viability, T/C [25]: 104%
viability, T/C [26]: 131%
viability, T/C [27]: 130%
viability, T/C [28]: 149%

NC(=O)C(=Cn1cnc(-c2cc(C(F)(F)F)cc(C(F)(F)F)c2)n1)c1cncnc1 + CNC(C)C(=O)NC1CN(S(=O)(=O)c2cccc(S(=O)(=O)N3CCC4CCC(C(=O)NC(c5ccccc5)c5ccccc5)N4C(=O)C(NC(=O)C(C)NC)C3)c2)CCC2CCC(C(=O)NC(c3ccccc3)c3ccccc3)N2C1=O
IC50 (second compound 0.01 µM): 192 nM
IC50 (second compound 0.0316 µM): 204 nM
IC50 (second compound 0.1 µM): 210 nM
IC50 (second compound 0.316 µM): 194 nM
IC50 (second compound 1 µM): 178 nM
viability, T/C (second compound 0.01 µM, first compound 0.000949 µM): 127%
viability, T/C (second compound 0.01 µM, first compound 0.003 µM): 102%
viability, T/C (second compound 0.01 µM, first compound 0.00949 µM): 98.9%
viability, T/C (second compound 0.01 µM, first compound 0.03 µM): 128%
viability, T/C (second compound 0.01 µM, first compound 0.0949 µM): 90.3%
viability, T/C (second compound 0.01 µM, first compound 0.3 µM): 24.3%
viability, T/C (second compound 0.0316 µM, first compound 0.000949 µM): 105%
viability, T/C (second compound 0.0316 µM, first compound 0.003 µM): 113%
viability, T/C (second compound 0.0316 µM, first compound 0.00949 µM): 93.8%
viability, T/C (second compound 0.0316 µM, first compound 0.03 µM): 109%
viability, T/C (second compound 0.0316 µM, first compound 0.0949 µM): 96.9%
viability, T/C (second compound 0.0316 µM, first compound 0.3 µM): 26.4%
viability, T/C (second compound 0.1 µM, first compound 0.000949 µM): 114%
viability, T/C (second compound 0.1 µM, first compound 0.003 µM): 109%
viability, T/C (second compound 0.1 µM, first compound 0.00949 µM): 113%
viability, T/C (second compound 0.1 µM, first compound 0.03 µM): 118%
viability, T/C (second compound 0.1 µM, first compound 0.0949 µM): 107%
viability, T/C (second compound 0.1 µM, first compound 0.3 µM): 24.6%
viability, T/C (second compound 0.316 µM, first compound 0.000949 µM): 103%
viability, T/C (second compound 0.316 µM, first compound 0.003 µM): 107%
viability, T/C (second compound 0.316 µM, first compound 0.00949 µM): 110%
viability, T/C (second compound 0.316 µM, first compound 0.03 µM): 111%
viability, T/C (second compound 0.316 µM, first compound 0.0949 µM): 97.8%
viability, T/C (second compound 0.316 µM, first compound 0.3 µM): 20.3%
viability, T/C (second compound 1 µM, first compound 0.000949 µM): 93.6%
viability, T/C (second compound 1 µM, first compound 0.003 µM): 108%
viability, T/C (second compound 1 µM, first compound 0.00949 µM): 113%
viability, T/C (second compound 1 µM, first compound 0.03 µM): 111%
viability, T/C (second compound 1 µM, first compound 0.0949 µM): 85.8%
viability, T/C (second compound 1 µM, first compound 0.3 µM): 20.2%

NC1CCC(NC2CC2c2ccccc2)CC1 (stereo not given) + CNC(C)C(=O)NC1CN(S(=O)(=O)c2cccc(S(=O)(=O)N3CCC4CCC(C(=O)NC(c5ccccc5)c5ccccc5)N4C(=O)C(NC(=O)C(C)NC)C3)c2)CCC2CCC(C(=O)NC(c3ccccc3)c3ccccc3)N2C1=O
IC50 (second compound 0.01 µM): > 100 nM
IC50 (second compound 0.0316 µM): > 100 nM
IC50 (second compound 0.1 µM): > 100 nM
IC50 (second compound 0.316 µM): > 100 nM
IC50 (second compound 1 µM): > 100 nM
viability, T/C [31]: 116%
viability, T/C [32]: 105%
viability, T/C [1]: 109%
viability, T/C [2]: 101%
viability, T/C [3]: 109%
viability, T/C [4]: 106%
viability, T/C [33]: 117%
viability, T/C [34]: 120%
viability, T/C [7]: 111%
viability, T/C [8]: 114%
viability, T/C [9]: 102%
viability, T/C [10]: 91.7%
viability, T/C [35]: 107%
viability, T/C [36]: 115%
viability, T/C [13]: 121%
viability, T/C [14]: 111%
viability, T/C [15]: 121%
viability, T/C [16]: 109%
viability, T/C [37]: 121%
viability, T/C [38]: 144%
viability, T/C [19]: 115%
viability, T/C [20]: 106%
viability, T/C [21]: 111%
viability, T/C [22]: 125%
viability, T/C [39]: 109%
viability, T/C [40]: 119%
viability, T/C [25]: 125%
viability, T/C [26]: 109%
viability, T/C [27]: 123%
viability, T/C [28]: 121%

O=C(c1ccc(F)c(F)c1Nc1ccc(I)cc1F)N1CC(O)([C@@H]2CCCCN2)C1 + CNC(C)C(=O)NC1CN(S(=O)(=O)c2cccc(S(=O)(=O)N3CCC4CCC(C(=O)NC(c5ccccc5)c5ccccc5)N4C(=O)C(NC(=O)C(C)NC)C3)c2)CCC2CCC(C(=O)NC(c3ccccc3)c3ccccc3)N2C1=O
IC50 (second compound 0.01 µM): 178 nM
IC50 (second compound 0.0316 µM): 176 nM
IC50 (second compound 0.1 µM): 134 nM
IC50 (second compound 0.316 µM): 126 nM
IC50 (second compound 1 µM): 85.4 nM
viability, T/C [1]: 90.3%
viability, T/C [2]: 89.6%
viability, T/C [3]: 106%
viability, T/C [4]: 78.4%
viability, T/C [5]: 21.6%
viability, T/C [6]: 11.9%
viability, T/C [7]: 110%
viability, T/C [8]: 95.9%
viability, T/C [9]: 115%
viability, T/C [10]: 82.2%
viability, T/C [11]: 17%
viability, T/C [12]: 10.4%
viability, T/C [13]: 107%
viability, T/C [14]: 104%
viability, T/C [15]: 98.8%
viability, T/C [16]: 61.7%
viability, T/C [17]: 15.8%
viability, T/C [18]: 9.21%
viability, T/C [19]: 112%
viability, T/C [20]: 112%
viability, T/C [21]: 108%
viability, T/C [22]: 59.4%
viability, T/C [23]: 12.6%
viability, T/C [24]: 7.61%
viability, T/C [25]: 106%
viability, T/C [26]: 119%
viability, T/C [27]: 105%
viability, T/C [28]: 41.2%
viability, T/C [29]: 8.18%
viability, T/C [30]: 7.39%
